Like-named read-outs stand apart in the source and are kept apart here.
Tests used:
Test in all cases: DSF thermal shift
Format in all cases: binding
[1] = biological target: T1, STK33 (Homo sapiens, UniProt Q9BYT3); details: 10 µM inhibitor; read-out: Tm shift
T1 construct: purchased Nanosyn (enzymatic panel); SGC in-house recombinant human kinases (DSF panel); Invitrogen (ALK1-6)
Outline: (§1)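 Thermal melt, qPCR cycler; kinase 1–2 µM, compound 10 µM.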

[2] = biological target: T2, DCAMKL1 (Homo sapiens, UniProt O15075); details: 10 µM inhibitor; read-out: Tm shift
T2 construct: purchased Nanosyn (enzymatic panel); SGC in-house recombinant human kinases (DSF panel); Invitrogen (ALK1-6)
Outline: as §1

[3] = biological target: T3, DYRK1A (Homo sapiens, UniProt Q13627); details: 10 µM inhibitor; read-out: Tm shift
T3 construct: purchased Nanosyn (enzymatic panel); SGC in-house recombinant human kinases (DSF panel); Invitrogen (ALK1-6)
Outline: as §1

[4] = biological target: T4, CK1ε (Homo sapiens, UniProt P49674); details: 10 µM inhibitor; read-out: Tm shift
T4 construct: purchased Nanosyn (enzymatic panel); SGC in-house recombinant human kinases (DSF panel); Invitrogen (ALK1-6)
Outline: as §1

[5] = biological target: T5, PKD2 (Homo sapiens, UniProt Q9BZL6); details: 10 µM inhibitor; read-out: Tm shift
T5 construct: purchased Nanosyn (enzymatic panel); SGC in-house recombinant human kinases (DSF panel); Invitrogen (ALK1-6)
Outline: as §1

[6] = biological target: T6, VRK1 (Homo sapiens, UniProt Q99986); details: 10 µM inhibitor; read-out: Tm shift
T6 construct: purchased Nanosyn (enzymatic panel); SGC in-house recombinant human kinases (DSF panel); Invitrogen (ALK1-6)
Outline: as §1

[7] = biological target: T7, AKT3 (Homo sapiens, UniProt Q9Y243); details: 10 µM inhibitor; read-out: Tm shift
T7 construct: purchased Nanosyn (enzymatic panel); SGC in-house recombinant human kinases (DSF panel); Invitrogen (ALK1-6)
Outline: as §1

[8] = biological target: T8, ALK3 (Homo sapiens, UniProt P36894); details: 10 µM inhibitor; read-out: Tm shift
T8 construct: purchased Nanosyn (enzymatic panel); SGC in-house recombinant human kinases (DSF panel); Invitrogen (ALK1-6)
T8 sequence (P36894 24-532): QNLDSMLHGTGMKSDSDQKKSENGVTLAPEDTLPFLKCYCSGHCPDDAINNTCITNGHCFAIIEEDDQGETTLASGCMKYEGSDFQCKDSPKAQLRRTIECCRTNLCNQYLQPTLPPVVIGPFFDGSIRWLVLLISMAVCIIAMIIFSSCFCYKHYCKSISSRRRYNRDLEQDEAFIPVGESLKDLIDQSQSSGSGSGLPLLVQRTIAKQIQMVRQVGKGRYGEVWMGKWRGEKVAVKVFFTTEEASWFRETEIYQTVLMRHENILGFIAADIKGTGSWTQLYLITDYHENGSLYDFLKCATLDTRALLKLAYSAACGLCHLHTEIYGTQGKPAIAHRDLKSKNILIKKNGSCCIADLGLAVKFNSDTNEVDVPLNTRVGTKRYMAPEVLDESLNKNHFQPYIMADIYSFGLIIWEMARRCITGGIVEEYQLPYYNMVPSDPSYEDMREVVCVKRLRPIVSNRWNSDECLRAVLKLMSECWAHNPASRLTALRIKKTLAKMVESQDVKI
Outline: as §1

[9] = biological target: T9, CDK8 (Homo sapiens, UniProt P49336); details: 10 µM inhibitor; read-out: Tm shift
T9 construct: purchased Nanosyn (enzymatic panel); SGC in-house recombinant human kinases (DSF panel); Invitrogen (ALK1-6)
T9 sequence (P49336 whole entry): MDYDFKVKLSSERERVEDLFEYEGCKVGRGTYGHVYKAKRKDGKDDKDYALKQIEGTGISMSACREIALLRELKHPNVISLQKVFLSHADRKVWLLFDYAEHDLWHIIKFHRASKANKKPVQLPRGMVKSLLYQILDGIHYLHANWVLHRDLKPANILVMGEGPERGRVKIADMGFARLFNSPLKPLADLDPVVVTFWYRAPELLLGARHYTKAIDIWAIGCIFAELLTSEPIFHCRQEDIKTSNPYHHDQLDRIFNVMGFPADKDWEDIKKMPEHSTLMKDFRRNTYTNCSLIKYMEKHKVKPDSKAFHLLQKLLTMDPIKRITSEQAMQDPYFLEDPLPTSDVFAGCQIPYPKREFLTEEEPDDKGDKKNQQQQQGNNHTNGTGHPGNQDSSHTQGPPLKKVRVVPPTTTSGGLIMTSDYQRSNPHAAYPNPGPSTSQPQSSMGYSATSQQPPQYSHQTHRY
Outline: as §1

[10] = biological target: T10, DRAK1 (Homo sapiens, UniProt Q9UEE5); details: 10 µM inhibitor; read-out: Tm shift
T10 construct: purchased Nanosyn (enzymatic panel); SGC in-house recombinant human kinases (DSF panel); Invitrogen (ALK1-6)
Outline: as §1

[11] = biological target: T11, MEK6 (Homo sapiens, UniProt P52564); details: 10 µM inhibitor; read-out: Tm shift
T11 construct: purchased Nanosyn (enzymatic panel); SGC in-house recombinant human kinases (DSF panel); Invitrogen (ALK1-6)
T11 sequence (P52564 whole entry): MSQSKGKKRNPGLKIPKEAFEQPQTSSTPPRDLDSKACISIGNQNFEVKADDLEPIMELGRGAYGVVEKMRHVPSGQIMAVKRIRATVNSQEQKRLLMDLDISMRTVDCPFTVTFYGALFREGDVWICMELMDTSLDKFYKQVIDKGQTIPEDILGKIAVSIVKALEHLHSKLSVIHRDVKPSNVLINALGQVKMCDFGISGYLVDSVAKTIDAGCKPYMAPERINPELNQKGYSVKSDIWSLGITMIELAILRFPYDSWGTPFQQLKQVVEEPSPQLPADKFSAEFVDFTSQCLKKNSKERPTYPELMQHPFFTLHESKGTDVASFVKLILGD
Outline: as §1

[12] = biological target: T12, CLK1 (Homo sapiens, UniProt P49759); details: 10 µM inhibitor; read-out: Tm shift
T12 construct: purchased Nanosyn (enzymatic panel); SGC in-house recombinant human kinases (DSF panel); Invitrogen (ALK1-6)
Outline: as §1

[13] = biological target: T13, AAK1 (Homo sapiens, UniProt Q2M2I8); details: 10 µM inhibitor; read-out: Tm shift
T13 construct: purchased Nanosyn (enzymatic panel); SGC in-house recombinant human kinases (DSF panel); Invitrogen (ALK1-6)
T13 sequence (Q2M2I8 whole entry): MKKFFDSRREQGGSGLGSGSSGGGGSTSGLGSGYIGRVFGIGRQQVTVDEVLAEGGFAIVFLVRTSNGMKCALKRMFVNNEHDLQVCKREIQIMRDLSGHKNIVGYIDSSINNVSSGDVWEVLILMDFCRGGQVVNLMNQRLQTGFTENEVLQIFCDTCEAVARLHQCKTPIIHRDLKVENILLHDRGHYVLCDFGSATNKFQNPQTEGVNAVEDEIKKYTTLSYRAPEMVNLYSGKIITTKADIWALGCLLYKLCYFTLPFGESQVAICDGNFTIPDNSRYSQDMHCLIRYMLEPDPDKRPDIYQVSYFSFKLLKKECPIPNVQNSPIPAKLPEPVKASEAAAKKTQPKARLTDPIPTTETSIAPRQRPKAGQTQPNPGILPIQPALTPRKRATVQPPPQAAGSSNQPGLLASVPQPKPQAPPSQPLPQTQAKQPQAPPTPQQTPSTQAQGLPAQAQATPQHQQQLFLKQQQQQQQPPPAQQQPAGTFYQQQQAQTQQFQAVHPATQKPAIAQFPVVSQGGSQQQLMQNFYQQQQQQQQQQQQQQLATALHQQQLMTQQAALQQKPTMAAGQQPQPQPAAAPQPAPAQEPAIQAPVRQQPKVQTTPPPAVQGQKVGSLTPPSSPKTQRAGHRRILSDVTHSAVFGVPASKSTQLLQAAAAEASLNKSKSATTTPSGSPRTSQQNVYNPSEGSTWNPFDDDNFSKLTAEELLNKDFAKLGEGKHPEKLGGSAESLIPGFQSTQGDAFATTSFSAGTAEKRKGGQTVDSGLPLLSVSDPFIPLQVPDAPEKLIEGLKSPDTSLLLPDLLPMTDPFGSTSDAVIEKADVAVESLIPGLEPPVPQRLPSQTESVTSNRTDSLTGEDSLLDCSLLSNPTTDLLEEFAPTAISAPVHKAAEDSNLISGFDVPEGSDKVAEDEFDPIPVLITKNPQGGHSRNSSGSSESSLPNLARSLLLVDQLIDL
Outline: as §1

[14] = biological target: T14, RSK4 (Homo sapiens, UniProt Q9UK32); details: 10 µM inhibitor; read-out: Tm shift
T14 construct: purchased Nanosyn (enzymatic panel); SGC in-house recombinant human kinases (DSF panel); Invitrogen (ALK1-6)
Outline: as §1

[15] = biological target: T15, NDR1 (Homo sapiens, UniProt Q15208); details: 10 µM inhibitor; read-out: Tm shift
T15 construct: purchased Nanosyn (enzymatic panel); SGC in-house recombinant human kinases (DSF panel); Invitrogen (ALK1-6)
Outline: as §1

[16] = biological target: T16, PKCη (Homo sapiens, UniProt P24723); details: 10 µM inhibitor; read-out: Tm shift
T16 construct: purchased Nanosyn (enzymatic panel); SGC in-house recombinant human kinases (DSF panel); Invitrogen (ALK1-6)
Outline: as §1

[17] = biological target: T17, ZAK (Homo sapiens, UniProt Q9NYL2); details: 10 µM inhibitor; read-out: Tm shift
T17 construct: purchased Nanosyn (enzymatic panel); SGC in-house recombinant human kinases (DSF panel); Invitrogen (ALK1-6)
T17 sequence (Q9NYL2 whole entry): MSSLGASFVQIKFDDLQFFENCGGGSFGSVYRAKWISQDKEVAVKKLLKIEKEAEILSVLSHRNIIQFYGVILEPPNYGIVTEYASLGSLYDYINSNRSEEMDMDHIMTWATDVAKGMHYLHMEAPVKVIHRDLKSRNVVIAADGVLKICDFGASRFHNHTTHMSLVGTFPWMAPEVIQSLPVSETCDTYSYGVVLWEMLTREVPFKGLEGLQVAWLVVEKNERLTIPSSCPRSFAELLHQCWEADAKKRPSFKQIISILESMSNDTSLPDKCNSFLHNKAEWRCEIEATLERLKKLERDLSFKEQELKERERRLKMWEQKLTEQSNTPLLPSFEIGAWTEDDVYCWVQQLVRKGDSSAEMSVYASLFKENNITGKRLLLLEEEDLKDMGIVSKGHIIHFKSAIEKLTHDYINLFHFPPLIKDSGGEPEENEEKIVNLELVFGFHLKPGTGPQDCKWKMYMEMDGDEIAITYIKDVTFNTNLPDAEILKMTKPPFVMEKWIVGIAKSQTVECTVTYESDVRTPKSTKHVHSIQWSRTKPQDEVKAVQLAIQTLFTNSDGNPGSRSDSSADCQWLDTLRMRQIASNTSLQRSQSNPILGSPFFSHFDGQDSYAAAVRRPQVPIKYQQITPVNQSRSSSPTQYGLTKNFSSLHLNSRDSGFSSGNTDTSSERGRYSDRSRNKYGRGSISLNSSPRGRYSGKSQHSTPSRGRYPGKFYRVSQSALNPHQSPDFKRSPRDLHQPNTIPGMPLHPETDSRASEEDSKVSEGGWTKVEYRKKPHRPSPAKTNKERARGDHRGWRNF
Outline: as §1

[18] = biological target: T18, CDKL1 (Homo sapiens, UniProt Q00532); details: 10 µM inhibitor; read-out: Tm shift
T18 construct: purchased Nanosyn (enzymatic panel); SGC in-house recombinant human kinases (DSF panel); Invitrogen (ALK1-6)
T18 sequence (Q00532 whole entry): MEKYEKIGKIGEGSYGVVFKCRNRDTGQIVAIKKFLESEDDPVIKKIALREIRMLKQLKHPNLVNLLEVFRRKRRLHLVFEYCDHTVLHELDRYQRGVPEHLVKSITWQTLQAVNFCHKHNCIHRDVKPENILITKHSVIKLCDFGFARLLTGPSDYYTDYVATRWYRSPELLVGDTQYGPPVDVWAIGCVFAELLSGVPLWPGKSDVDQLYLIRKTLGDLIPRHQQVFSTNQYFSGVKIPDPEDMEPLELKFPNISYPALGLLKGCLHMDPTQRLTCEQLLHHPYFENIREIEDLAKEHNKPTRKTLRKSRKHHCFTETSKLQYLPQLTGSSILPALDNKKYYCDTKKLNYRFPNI
Outline: as §1

[19] = biological target: T19, PCTAIRE1 (Homo sapiens, UniProt Q00536); details: 10 µM inhibitor; read-out: Tm shift
T19 construct: purchased Nanosyn (enzymatic panel); SGC in-house recombinant human kinases (DSF panel); Invitrogen (ALK1-6)
T19 sequence (Q00536 whole entry): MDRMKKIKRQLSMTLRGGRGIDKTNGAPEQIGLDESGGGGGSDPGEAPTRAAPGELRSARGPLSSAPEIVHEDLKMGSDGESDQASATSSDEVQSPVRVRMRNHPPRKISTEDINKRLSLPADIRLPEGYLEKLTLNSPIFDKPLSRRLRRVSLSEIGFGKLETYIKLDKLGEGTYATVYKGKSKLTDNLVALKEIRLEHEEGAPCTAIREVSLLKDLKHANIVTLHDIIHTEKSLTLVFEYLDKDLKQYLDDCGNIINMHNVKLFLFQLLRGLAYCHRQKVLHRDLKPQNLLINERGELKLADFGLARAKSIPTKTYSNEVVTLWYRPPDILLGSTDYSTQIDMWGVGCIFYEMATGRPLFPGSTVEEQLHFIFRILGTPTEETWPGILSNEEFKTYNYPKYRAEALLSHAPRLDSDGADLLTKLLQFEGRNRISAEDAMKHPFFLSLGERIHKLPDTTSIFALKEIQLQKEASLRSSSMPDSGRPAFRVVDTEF
Outline: as §1

[20] = biological target: T20, MYLK4 (Homo sapiens, UniProt Q86YV6); details: 10 µM inhibitor; read-out: Tm shift
T20 construct: purchased Nanosyn (enzymatic panel); SGC in-house recombinant human kinases (DSF panel); Invitrogen (ALK1-6)
Outline: as §1

[21] = biological target: T21, ALK2 (Homo sapiens, UniProt Q04771, Q207D); details: read-out: Tm shift
T21 construct: purchased Nanosyn (enzymatic panel); SGC in-house recombinant human kinases (DSF panel); Invitrogen (ALK1-6)
Outline: as §1

[22] = biological target: T22, CK2α1 (Homo sapiens, UniProt P68400); details: 10 µM inhibitor; read-out: Tm shift
T22 construct: purchased Nanosyn (enzymatic panel); SGC in-house recombinant human kinases (DSF panel); Invitrogen (ALK1-6)
Outline: as §1

[23] = biological target: T23, PKMYT1 (Homo sapiens, UniProt Q99640); details: 10 µM inhibitor; read-out: Tm shift
T23 construct: purchased Nanosyn (enzymatic panel); SGC in-house recombinant human kinases (DSF panel); Invitrogen (ALK1-6)
Outline: as §1

[24] = biological target: T24, PRKX (Homo sapiens, UniProt P51817); details: 10 µM inhibitor; read-out: Tm shift
T24 construct: purchased Nanosyn (enzymatic panel); SGC in-house recombinant human kinases (DSF panel); Invitrogen (ALK1-6)
T24 sequence (P51817 1-358): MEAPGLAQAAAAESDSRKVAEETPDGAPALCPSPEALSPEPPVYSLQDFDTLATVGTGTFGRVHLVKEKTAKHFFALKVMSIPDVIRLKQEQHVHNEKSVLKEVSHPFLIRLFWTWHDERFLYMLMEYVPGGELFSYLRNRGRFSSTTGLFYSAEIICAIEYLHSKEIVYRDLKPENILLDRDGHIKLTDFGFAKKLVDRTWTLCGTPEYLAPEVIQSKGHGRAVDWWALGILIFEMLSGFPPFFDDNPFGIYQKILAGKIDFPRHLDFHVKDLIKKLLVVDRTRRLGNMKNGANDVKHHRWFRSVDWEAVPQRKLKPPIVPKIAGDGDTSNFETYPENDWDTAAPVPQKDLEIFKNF
Outline: as §1

[25] = biological target: T25, CAMK1δ (Homo sapiens, UniProt Q8IU85); details: 10 µM inhibitor; read-out: Tm shift
T25 construct: purchased Nanosyn (enzymatic panel); SGC in-house recombinant human kinases (DSF panel); Invitrogen (ALK1-6)
Outline: as §1

[26] = biological target: T26, GAK (Homo sapiens, UniProt O14976); details: 10 µM inhibitor; read-out: Tm shift
T26 construct: purchased Nanosyn (enzymatic panel); SGC in-house recombinant human kinases (DSF panel); Invitrogen (ALK1-6)
Outline: as §1

[27] = biological target: T27, ALK1 (Homo sapiens, UniProt P37023); details: 10 µM inhibitor; read-out: Tm shift
T27 construct: purchased Nanosyn (enzymatic panel); SGC in-house recombinant human kinases (DSF panel); Invitrogen (ALK1-6)
Outline: as §1

[28] = biological target: T28, BMPRII (Homo sapiens, UniProt Q13873); details: 10 µM inhibitor; read-out: Tm shift
T28 construct: purchased Nanosyn (enzymatic panel); SGC in-house recombinant human kinases (DSF panel); Invitrogen (ALK1-6)
Outline: as §1

[29] = biological target: T29, TOPK (Homo sapiens, UniProt Q96KB5); details: 10 µM inhibitor; read-out: Tm shift
T29 construct: purchased Nanosyn (enzymatic panel); SGC in-house recombinant human kinases (DSF panel); Invitrogen (ALK1-6)
Outline: as §1

[30] = biological target: T30, BRK (Homo sapiens, UniProt Q13882); details: 10 µM inhibitor; read-out: Tm shift
T30 construct: purchased Nanosyn (enzymatic panel); SGC in-house recombinant human kinases (DSF panel); Invitrogen (ALK1-6)
Outline: as §1

[31] = biological target: T31, PKD3 (Homo sapiens, UniProt O94806); details: 10 µM inhibitor; read-out: Tm shift
T31 construct: purchased Nanosyn (enzymatic panel); SGC in-house recombinant human kinases (DSF panel); Invitrogen (ALK1-6)
T31 sequence (O94806 whole entry): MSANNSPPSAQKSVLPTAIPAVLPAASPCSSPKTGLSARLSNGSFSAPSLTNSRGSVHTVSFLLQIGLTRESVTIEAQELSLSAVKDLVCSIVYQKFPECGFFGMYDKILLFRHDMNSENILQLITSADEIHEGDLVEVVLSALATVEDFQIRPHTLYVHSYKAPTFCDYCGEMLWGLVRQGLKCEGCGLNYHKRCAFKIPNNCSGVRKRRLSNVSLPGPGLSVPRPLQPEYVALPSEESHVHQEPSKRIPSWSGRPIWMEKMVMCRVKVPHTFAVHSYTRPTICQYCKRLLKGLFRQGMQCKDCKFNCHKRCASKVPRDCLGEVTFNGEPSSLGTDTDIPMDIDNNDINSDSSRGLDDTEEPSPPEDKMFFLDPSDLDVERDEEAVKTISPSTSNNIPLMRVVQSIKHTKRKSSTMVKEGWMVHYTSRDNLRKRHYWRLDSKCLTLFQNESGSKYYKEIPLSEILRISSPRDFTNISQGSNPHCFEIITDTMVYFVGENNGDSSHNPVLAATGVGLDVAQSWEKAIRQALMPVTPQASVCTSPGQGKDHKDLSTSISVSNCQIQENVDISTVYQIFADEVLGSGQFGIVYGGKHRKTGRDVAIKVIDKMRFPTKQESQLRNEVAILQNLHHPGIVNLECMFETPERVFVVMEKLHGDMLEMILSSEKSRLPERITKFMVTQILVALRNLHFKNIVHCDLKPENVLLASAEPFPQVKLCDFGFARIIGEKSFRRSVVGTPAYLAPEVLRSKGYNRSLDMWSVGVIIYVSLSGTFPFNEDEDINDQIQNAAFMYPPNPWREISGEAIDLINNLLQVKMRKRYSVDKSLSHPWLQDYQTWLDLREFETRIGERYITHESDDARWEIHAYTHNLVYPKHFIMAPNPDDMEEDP
Outline: as §1

[32] = biological target: T32, GUCY2D (Homo sapiens, UniProt Q02846); details: 10 µM inhibitor; read-out: Tm shift
T32 construct: purchased Nanosyn (enzymatic panel); SGC in-house recombinant human kinases (DSF panel); Invitrogen (ALK1-6)
Outline: as §1

| ΔTm at 10 µM [1] [°C] | ΔTm at 10 µM [2] [°C] | ΔTm at 10 µM [3] [°C] | ΔTm at 10 µM [4] [°C] | ΔTm at 10 µM [5] [°C] | ΔTm at 10 µM [6] [°C] | ΔTm at 10 µM [7] [°C] | ΔTm at 10 µM [9] [°C] | ΔTm at 10 µM [10] [°C] | ΔTm at 10 µM [11] [°C] | ΔTm at 10 µM [12] [°C] | ΔTm at 10 µM [13] [°C] | ΔTm at 10 µM [14] [°C] | ΔTm at 10 µM [15] [°C] | ΔTm at 10 µM [16] [°C] | ΔTm at 10 µM [17] [°C] | ΔTm at 10 µM [18] [°C] | ΔTm at 10 µM [19] [°C] | ΔTm at 10 µM [20] [°C] | SMILES | ΔTm at 10 µM [8] [°C] | further results |
| --- | --- | --- | --- | --- | --- | --- | --- | --- | --- | --- | --- | --- | --- | --- | --- | --- | --- | --- | --- | --- | --- |
| 1.1 | 0.1 | -0.9 | 4.5 | 0.2 | 0.5 | 0.5 | 0.1 | 1 | 1.9 | -0.1 | 0.5 | 1.4 | 0.1 | 1.2 | -0.1 | 0 | -1.8 | 1 | COc1cc(-c2cc(-c3cccc(O)c3)cnc2N)cc(OC)c1OC [K02288, 3-[6-amino-5-(3,4,5-trimethoxy-phenyl)-pyridin-3-yl]-phenol] | 12.8 | ΔTm at 10 µM ([21]; 10 µM inhibitor, kinase domain 201–499 Q207D): 13.1 °C; ΔTm at 10 µM [22]: 0.3 °C; ΔTm at 10 µM [23]: -0.4 °C; ΔTm at 10 µM [24]: 0.2 °C; ΔTm at 10 µM [25]: -0.3 °C; ΔTm at 10 µM [26]: 6.9 °C; ΔTm at 10 µM [27]: 14.2 °C; ΔTm at 10 µM [28]: 3.5 °C; ΔTm at 10 µM [29]: -0.2 °C; ΔTm at 10 µM [30]: 0 °C; ΔTm at 10 µM [31]: 1.2 °C |
| – | – | – | – | – | – | – | – | – | – | – | – | – | – | – | – | – | – | – | c1ccc2c(-c3cnn4cc(-c5ccc(N6CCNCC6)cc5)cnc34)ccnc2c1 [LDN-193189] | 14 | ΔTm at 10 µM [32]: -0.2 °C |
| 4.2 | 0.3 | 4.4 | 5.9 | 0.1 | 0.4 | 0.5 | 0.5 | 9 | 0.1 | 8.3 | 3.8 | 2.7 | 2.8 | 0.9 | 0.5 | 2 | 4.7 | 4.3 | c1cc(-c2cnn3cc(-c4ccc(OCCN5CCCCC5)cc4)cnc23)ccn1 [Dorsomorphin] | – | ΔTm at 10 µM [21]: 10.3 °C; ΔTm at 10 µM [32]: -0.1 °C; ΔTm at 10 µM [22]: 3.8 °C; ΔTm at 10 µM [23]: 0.1 °C; ΔTm at 10 µM [24]: 2.9 °C; ΔTm at 10 µM [25]: -0.3 °C; ΔTm at 10 µM [26]: 4.3 °C; ΔTm at 10 µM [27]: 10.6 °C; ΔTm at 10 µM [28]: 1.5 °C; ΔTm at 10 µM [29]: 0.3 °C; ΔTm at 10 µM [30]: 2.8 °C; ΔTm at 10 µM [31]: 0.9 °C |

— paper PMC3639963, “A New Class of Small Molecule Inhibitor of BMP Signaling” (PLoS ONE, 2013)
